Source: patent US8546442B2, “Pyrazolopiperidine compounds as CCR1 receptor antagonists” (Boehringer Ingelheim International GmbH, priority 2010, dated 2013)

Target: T1, CCR1 (Homo sapiens, UniProt P32246)
T1 sequence (P32246 1-355): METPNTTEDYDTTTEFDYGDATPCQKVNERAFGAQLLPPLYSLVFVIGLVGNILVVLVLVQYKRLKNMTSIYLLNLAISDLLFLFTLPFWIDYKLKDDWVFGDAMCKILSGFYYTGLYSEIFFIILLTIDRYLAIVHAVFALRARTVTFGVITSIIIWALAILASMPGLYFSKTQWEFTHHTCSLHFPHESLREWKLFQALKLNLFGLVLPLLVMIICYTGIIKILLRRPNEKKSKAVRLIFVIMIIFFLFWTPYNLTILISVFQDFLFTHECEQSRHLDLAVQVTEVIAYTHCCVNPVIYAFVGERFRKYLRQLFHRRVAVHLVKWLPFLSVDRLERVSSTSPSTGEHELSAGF
Assay: calcium flux in CCR1 transfected cells, Method B (Calcium 4 dye, HAMAMATSU FDSS6000)
Type: cell-based
Settings: cells stably expressing recombinant CCR1 and G-alpha-16, MIP-1alpha at EC80
Experimental: Compounds are assessed for the ability to block the interaction of CCR1 and MIP-1α in a functional cellular assay measuring calcium flux in CCR1 transfected cells.
Method B: Non-adherent cells purchased from Chemicon Corporation (HTS005C), stably expressing recombinant CCR1 and G-alpha-16 are grown in RPMI 1640 medium (Mediatech 10-080-CM) supplemented with 10% FBS, 0.4 mg/mL Geneticin and penicillin/streptomycin. On the day of the assay, the cells are loaded with Calcium 4 dye (Molecular Devices R7448) with Probenecid (Invitrogen P346400) at 8E5 cells/mL for 1 hour at room temperature. After 1 hour, they are seeded in a 384-well tissue culture-treated plate at a density of 20,000 cells/well. Appropriately diluted test compound is added to the well to achieve a top concentration of 3,000 nM (diluted 4-fold with 10 doses total). The final concentration of DMSO is 1%. The buffer is HBSS (Invitrogen 14025) with 20 mM HEPES at pH 7.4. The cells incubate 30 minutes at 37 C and then 30 minutes at room temperature. The plates are transferred to the HAMAMATSU FDSS6000 where MIP-1alpha in 1% BSA is added at the EC80 final concentration. All plates must be read within 4 hours of the start of dye-loading. Wells+/−MIP-1alpha containing diluted DMSO instead of compound serve as the controls. Data are analyzed using Activity Base software.

IC50 [nM]	Structure (SMILES)
37	CCC[C@H](NC(=O)N1c2cnn(-c3ccc(F)cc3)c2CCC1C(F)(F)F)c1cc(S(C)(=O)=O)ccc1F (single isomer, unassigned) [Example 77]
31	CCC[C@H](NC(=O)N1c2cnn(-c3ccc(F)cc3)c2CCC1C)c1ccnc(S(C)(=O)=O)c1 (single isomer, unassigned) [Example 80]
4	CCC[C@H](NC(=O)N1c2cnn(-c3ccc(F)cc3)c2CCC1C)c1ccnc(S(C)(=O)=O)c1 (single isomer, unassigned) [Example 81]
453	C[C@H](NC(=O)N1CCCc2c1cnn2-c1ccc(F)cc1)c1ccccc1 [Example 2]
126	O=C(NCCc1ccccc1)N1CCCc2c1cnn2-c1ccc(F)cc1 [Example 3]
283	Cc1ccccc1CNC(=O)N1CCCc2c1cnn2-c1ccc(F)cc1 [Example 4]
90	Cc1ccc(CNC(=O)N2CCCc3c2cnn3-c2ccc(F)cc2)cc1 [Example 5]
125	C[C@@H](NC(=O)N1CCCc2c1cnn2-c1ccc(F)cc1)c1ccccc1 [Example 6]
183	O=C(NCc1ccc(F)cc1)N1CCCc2c1cnn2-c1ccc(F)cc1 [Example 7]
266	O=C(NCc1ccccc1F)N1CCCc2c1cnn2-c1ccc(F)cc1 [Example 8]
108	O=C(NCc1cccc(F)c1)N1CCCc2c1cnn2-c1ccc(F)cc1 [Example 9]
266	COc1ccc(CNC(=O)N2CCCc3c2cnn3-c2ccc(F)cc2)cc1 [Example 10]
610	COc1ccccc1CNC(=O)N1CCCc2c1cnn2-c1ccc(F)cc1 [Example 11]
138	O=C(NCc1ccccc1Cl)N1CCCc2c1cnn2-c1ccc(F)cc1 [Example 12]
45	O=C(NCc1ccc(Cl)cc1)N1CCCc2c1cnn2-c1ccc(F)cc1 [Example 13]
102	COc1ccc([C@H](C)NC(=O)N2CCCc3c2cnn3-c2ccc(F)cc2)cc1 [Example 14]
115	O=C(Nc1cccc(C(F)(F)F)c1)N1CCCc2c1cnn2-c1ccc(F)cc1 [Example 15]
12	O=C(NCc1ccc(Cl)cc1Cl)N1CCCc2c1cnn2-c1ccc(F)cc1 [Example 16]
1	O=C(NCc1ccc(Cl)c(Cl)c1)N1CCCc2c1cnn2-c1ccc(F)cc1 [Example 17]
131	Cc1cccc(CNC(=O)N2CCCc3c2cnn3-c2ccc(F)cc2)c1 [Example 18]

IC50 [nM]	Structure (SMILES)
395	O=C(NCc1ccccc1)N1CCCc2c1cnn2-c1ccc(F)cc1 [Example 19]
91	COc1cccc(CNC(=O)N2CCCc3c2cnn3-c2ccc(F)cc2)c1 [Example 20]
1	O=C(NCc1cccc(C(F)(F)F)c1)N1CCCc2c1cnn2-c1ccc(F)cc1 [Example 21, 1-(4-Fluorophenyl)-N-[3-(trifluoromethyl)benzyl]-1,5,6,7-tetrahydro-4H-pyrazolo[4,3-b]pyridine-4-carboxamide]
68	O=C(NCc1ccc(S(=O)(=O)N2CCOCC2)cc1)N1CCCc2c1cnn2-c1ccc(F)cc1 [Example 27]
16	CNS(=O)(=O)c1cccc(CNC(=O)N2CCCc3c2cnn3-c2ccc(F)cc2)c1 [Example 29]
94	CS(=O)(=O)c1ccc(CNC(=O)N2CCCc3c2cnn3-c2ccc(F)cc2)cn1 [Example 30]
34	CS(=O)(=O)c1cc(CNC(=O)N2CCCc3c2cnn3-c2ccc(F)cc2)ccn1 [Example 32]
40	O=C(NCc1ccc(Br)cc1)N1CCCc2c1cnn2-c1ccc(F)cc1 [Example 37]
25	CS(=O)(=O)c1ccc(CNC(=O)N2CCCc3c2cnn3-c2ccc(F)cc2)cc1O [Example 43, 1-(4-Fluorophenyl)-1,5,6,7-tetrahydro-pyrazolo[4,3-b]pyridine-4-carboxylic acid 3-hydroxy-4-methanesulfonyl-benzylamide]
18	C[C@H](NC(=O)N1CCCc2c1cnn2-c1ccc(F)cc1)c1cncc(S(C)(=O)=O)c1 [Example 44, 1-(4-Fluorophenyl)-1,5,6,7-tetrahydro-pyrazolo[4,3-b]pyridine-4-carboxylic acid [(S)-1-(5-methanesulfonyl-pyridin-3-yl)-ethyl]-amide]
128	C[C@H](NC(=O)N1CCCc2c1cnn2-c1ccc(F)cc1)c1ccc(S(C)(=O)=O)nc1 [Example 52]
1280	CC1CCc2c(cnn2-c2ccc(F)cc2)N1C(=O)NCc1ccnc(S(C)(=O)=O)c1 (stereo not drawn) [Example 53]
684	CC1CCc2c(cnn2-c2ccc(F)cc2)N1C(=O)N[C@@H](C)c1ccnc(S(C)(=O)=O)c1 (stereo partly drawn) [Example 54]
84	CC[C@H](NC(=O)N1c2cnn(-c3ccc(F)cc3)c2CCC1C(F)(F)F)c1ccnc(S(C)(=O)=O)c1 (stereo partly drawn) [Example 58]
1850	CS(=O)(=O)c1cc(C2(NC(=O)N3c4cnn(-c5ccc(F)cc5)c4CCC3C(F)(F)F)CC2)ccn1 (stereo not drawn) [Example 64]
330	CCC[C@H](NC(=O)N1CCCc2c1cnn2C1CCCCC1)c1ccnc(S(C)(=O)=O)c1 [Example 65]
194	CCC[C@H](NC(=O)N1CCCc2c1cnn2C1CCCC1)c1ccnc(S(C)(=O)=O)c1 [Example 67]
205	CCC[C@H](NC(=O)N1c2cnn(-c3ccc(F)cc3)c2CCC1C(F)(F)F)c1ccc(Br)cc1F (stereo partly drawn) [Example 68]
11	CCC[C@H](NC(=O)N1c2cnn(-c3ccc(F)cc3)c2CCC1C(F)(F)F)c1ccc(S(C)(=O)=O)cc1F (stereo partly drawn) [Example 69]
5	CCC[C@H](NC(=O)N1c2cnn(-c3ccc(F)cc3)c2CCC1C)c1ccnc(S(C)(=O)=O)c1 (stereo partly drawn) [Example 70]

IC50 [nM]	Structure (SMILES)
0.3	CCC[C@H](NC(=O)N1CCCc2c1cnn2-c1ccc(Cl)cc1)c1ccnc(S(C)(=O)=O)c1 [Example 71]
344	CCC[C@H](NC(=O)N1CCCCc2c1cnn2-c1ccc(F)cc1)c1ccnc(S(C)(=O)=O)c1 [Example 72]
640	CCC[C@H](NC(=O)N1CCCCc2c1cnn2-c1ccc(F)cc1)c1cncc(S(C)(=O)=O)c1 [Example 75]
4	CCC[C@H](NC(=O)N1CC(C(F)(F)F)Cc2c1cnn2-c1ccc(F)cc1)c1ccnc(S(C)(=O)=O)c1 (stereo partly drawn) [Example 78]
2	CCC[C@H](NC(=O)N1CC(C(F)(F)F)Cc2c1cnn2-c1ccc(F)cc1)c1ccnc(S(C)(=O)=O)c1 (stereo partly drawn) [Example 79]
23	CC[C@H](NC(=O)N1c2cnn(-c3ccc(F)cc3)c2CCC1C(F)(F)F)c1ccc(OC)c(S(C)(=O)=O)c1 (stereo partly drawn) [Example 82]
1260	C[C@H](NC(=O)N1CC(C(F)(F)F)Cc2c1cnn2-c1ccc(F)cc1)c1ccnc(S(C)(=O)=O)c1 (stereo partly drawn) [Example 83]
14	CC[C@H](NC(=O)N1c2cnn(-c3ccc(F)cc3)c2CCC1C(F)(F)F)c1ccc(S(C)(=O)=O)c(OC)c1 (stereo partly drawn) [Example 84]
23	CC[C@H](NC(=O)N1c2cnn(-c3ccc(F)cc3)c2CCC1C(F)(F)F)c1ccc(S(C)(=O)=O)c(O)c1 (stereo partly drawn) [Example 85]
2	CCC[C@H](NC(=O)N1CCCc2c1cnn2-c1ccc(F)c(Cl)c1)c1ccnc(S(C)(=O)=O)c1 [Example 86]
10	CCC[C@H](NC(=O)N1CCc2c1cnn2-c1ccc(F)cc1)c1ccnc(S(C)(=O)=O)c1 [Example 87, 1-(4-Fluorophenyl)-5,6-dihydro-1H-pyrrolo[3,2-c]pyrazole-4-carboxylic acid [(S)-1-(2-methanesulfonyl-pyridin-4-yl)-butyl]-amide]
52	CCC[C@H](NC(=O)N1CCc2c1cnn2-c1ccc(F)cc1)c1ccnc(C)c1 [Example 88]
34	CC[C@H](NC(=O)N1CCc2c1cnn2-c1ccc(F)cc1)c1cccc(S(C)(=O)=O)c1 [Example 89]
6	CCC[C@H](NC(=O)N1c2cnn(-c3ccc(F)cc3)c2CCC1C(F)(F)F)c1cc(F)cc(S(C)(=O)=O)c1 (stereo partly drawn) [Example 90]
18	CCC[C@H](NC(=O)N1c2cnn(-c3ccc(Cl)cc3)c2CCC1C)c1ccnc(S(C)(=O)=O)c1 (stereo partly drawn) [Example 93]
57	CCC[C@H](NC(=O)N1c2cnn(-c3ccc(F)cc3)c2CCC1C(F)(F)F)c1cccc(S(C)(=O)=O)n1 (stereo partly drawn) [Example 94]
6	CCC[C@H](NC(=O)N1c2cnn(-c3ccc(F)cc3)c2CCC1C(F)(F)F)c1ccc(OC)c(S(C)(=O)=O)c1 (stereo partly drawn) [Example 95]
7	CCC[C@H](NC(=O)N1c2cnn(-c3ccc(F)cc3)c2CCC1C(F)(F)F)c1ccc(O)c(S(C)(=O)=O)c1 (stereo partly drawn) [Example 96]
5	CCC[C@H](NC(=O)N1c2cnn(-c3ccc(F)cc3)c2CCC1C(F)(F)F)c1ccc(OC)c(Br)c1 (stereo partly drawn) [Example 97]
1570	CCC[C@H](NC(=O)N1CCCc2c1c(C)nn2-c1ccc(F)cc1)c1ccnc(S(C)(=O)=O)c1 [Example 98]
